This passage reports IC50 results from patent publication US9255090B2, “Heterocyclyl derivatives and their use as prostaglandin D2 receptor modulators” (Actelion Pharmaceuticals Ltd., priority 2012, dated 2016).

Each structure is given as a SMILES string.

The assay has as its target hCRTH2 receptor (Homo sapiens (Human), UniProt Q9Y5Y4). The assay can be described thus: hCRTH2 receptor membranes radioligand (3H-PGD2) displacement assay. The class given is binding. Conditions: 3H-PGD2 radioligand displacement, HEK293-hCRTH2 membranes. The protocol:
Biological Assays: Preparation of hCRTH2 Receptor Membranes and Radioligand Displacement Assay:
First, recombinant HEK293-hCRTH2 cells were detached from culture plates into 5 ml buffer A/plate (Buffer A: 5 mM Tris, 1 mM MgCl2-6H2O pH=7.4) using a rubber policeman. Cells were then transferred into centrifugation tubes and centrifuged for 5 min at 400 g. The cell pellet was resuspended in the same buffer and tubes were frozen at −80° C. Cells were thawed and membrane fragments were generated by homogenization using a polytron homogenizer (30 seconds). The membrane fragments were then centrifuged at 3000 g for 20 minutes and resuspended in buffer C (Buffer C: 75 mM Tris, 25 mM MgCl2, 250 mM Saccharose pH 7.4). Aliquots of membrane fragments were stored at −20° C.
Binding assay was performed in a final assay volume of 250 μl. First, 25 μl of test compound, previously diluted in Binding-Buffer (Binding-Buffer: 50 mM Tris-Base, 100 mM NaCl, 1 mM EDTA, 0.1% BSA (protease free), 0.01% NaN3, 10 mM MnCl2, pH 7.0) was placed into each well. After addition of 75 μl Binding-Buffer, 50 μl of the radioligand ^3H-PGD2 (at 2.5 nM (220.000 dpm/well) from ANAWA ART0662) was added to each well. Binding assay was started by addition of 100 μl CRTH2 membrane fragments, reaching a final concentration of 20 μg/well. For non-specific binding, PGD2 was added to the reaction mixture to […] final concentration. This assay mix was incubated for 90 minutes at room temperature and then filtered through a GF/C filter 96-well plate which was pre-soaked for 3 hours in 0.5% polyethyleneimine (PEI). The filter-wells were washed three times with ice cold Binding-Buffer. Then, 40 μl of Microscint-40 (Packard) was added to each well and the retained radioactivity quantified in a Topcount (Packard).
On the technique in general: In a radioligand displacement assay an active substance lowers the binding of a labelled ligand.

Sequence of hCRTH2 receptor (Q9Y5Y4 whole entry): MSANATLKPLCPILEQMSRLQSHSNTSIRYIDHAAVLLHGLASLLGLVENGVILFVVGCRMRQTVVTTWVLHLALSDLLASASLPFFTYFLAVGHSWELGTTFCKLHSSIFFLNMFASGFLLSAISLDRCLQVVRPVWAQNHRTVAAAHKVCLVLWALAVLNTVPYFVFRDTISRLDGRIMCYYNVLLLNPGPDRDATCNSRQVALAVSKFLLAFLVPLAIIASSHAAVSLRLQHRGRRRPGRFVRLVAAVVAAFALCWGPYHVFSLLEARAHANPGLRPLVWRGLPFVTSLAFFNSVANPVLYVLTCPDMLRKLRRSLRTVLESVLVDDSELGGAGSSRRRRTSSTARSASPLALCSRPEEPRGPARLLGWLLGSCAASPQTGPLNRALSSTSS

In general, IC50 refers to the concentration that gives 50% inhibition. High values mean weaker potency in that assay, low ones greater potency in that assay. Turning to `COc1ccc(CC(=O)O)cc1-c1ccc(F)c2c1CN(C(=O)CC(c1ccccc1)C(C)C)CC2` (racemic) [Example 264], the IC50 was found to be 253 nM. That is a sub-micromolar value.

Compound `CCOc1ccc(CC(=O)O)cc1-c1ccc(F)c2c1CN(C(=O)OCC(C)CC)CC2` (racemic) [Example 380] showed an IC50 of 4.2 nM.

Compound `COc1ccc(CC(=O)O)cc1-c1ccc(F)c2c1CN(C(=O)COc1ccc(F)cc1)CC2` [Example 44, (3-{5-Fluoro-2-[2-(4-fluoro-phenoxy)-acetyl]-1,2,3,4-tetrahydro-isoquinolin-8-yl}-4-methoxy-phenyl)-acetic acid] gave a half-inhibitory concentration (IC50) of 59.1 nM.

In turn, `COc1ccc(CC(=O)O)cc1-c1ccc(F)c2c1CN(C(=O)CCc1ccccn1)CC2` [Example 91, {3-[5-Fluoro-2-(3-pyridin-2-yl-propionyl)-1,2,3,4-tetrahydro-isoquinolin-8-yl]-4-methoxy-phenyl}-acetic acid] returned an IC50 of 32.1 nM. Against the preceding compound, the IC50 is about 1.8-fold lower.

The compound `COc1ccc(CC(=O)O)cc1-c1ccc(F)c2c1CN(C(=O)C1CC(=O)c3ccccc31)CC2` (racemic) [Example 122, (±)-{3-[5-Fluoro-2-(3-oxo-indane-1-carbonyl)-1,2,3,4-tetrahydro-isoquinolin-8-yl]-4-methoxy-phenyl}-acetic acid] had an IC50 of 862 nM.

In turn, `COc1ccc(CC(=O)O)cc1-c1ccc(F)c2c1CN(C(=O)/C=C/c1cc(C)nn1C)CC2` [Example 90, (3-{2-[(E)-3-(2,5-Dimethyl-2H-pyrazol-3-yl)-acryloyl]-5-fluoro-1,2,3,4-tetrahydro-isoquinolin-8-yl}-4-methoxy-phenyl)-acetic acid] came in with a 50% inhibitory concentration (IC50) of 49.1 nM.

Take `COc1ccc(CC(=O)O)cc1-c1ccc(F)c2c1CN(C(=O)OCC(C)C)CC2` [Example 142, 8-(5-Carboxymethyl-2-methoxy-phenyl)-5-fluoro-3,4-dihydro-1H-isoquinoline-2-carboxylic acid isobutyl ester]: the IC50 stood at 148 nM.

The compound `COc1ccc(CC(=O)O)cc1-c1ccc(Cl)c2c1CN(C(=O)CCN1CCc3ccccc31)CC2` [Example 78, {3-[5-Chloro-2-(3-2,3-dihydro-indol-1-yl-propionyl)-1,2,3,4-tetrahydro-isoquinolin-8-yl]-4-methoxy-phenyl}-acetic acid] registered an IC50 of 61.5 nM.

As to `CCOc1ccc(CC(=O)O)cc1-c1ccc(F)c2c1CN(C(=O)C(C)Cc1ccccc1)CC2` (centres unmarked) [Example 213], the IC50 amounted to 111 nM.

`CCOc1cc(CC(=O)O)ccc1-c1ccc(F)c2c1CN(C(=O)NCc1ccccc1Cl)CC2` [Example 444, {4-[2-(2-Chloro-benzylcarbamoyl)-5-fluoro-1,2,3,4-tetrahydro-isoquinolin-8-yl]-3-ethoxy-phenyl}-acetic acid] gave a half-maximal inhibitory concentration (IC50) of 2 nM.

The compound `COc1ccc(CC(=O)O)cc1-c1ccc(F)c2c1CN(C(=O)CCCc1ccccc1)CC2` [Example 117, {3-[5-Fluoro-2-(4-phenyl-butyryl)-1,2,3,4-tetrahydro-isoquinolin-8-yl]-4-methoxy-phenyl}-acetic acid] showed an IC50 of 5.41 nM.

`COc1cc(CC(=O)O)cc(-c2ccc(F)c3c2CN(C(=O)OCc2ccccc2)CC3)c1` [Example 15, 8-(3-Carboxymethyl-5-methoxy-phenyl)-5-fluoro-3,4-dihydro-1H-isoquinoline-2-carboxylic acid benzyl ester] had an IC50 of 18.5 nM.

The compound `COc1cc(CC(=O)O)ccc1-c1ccc(F)c2c1CN(C(=O)CCn1ncc3cc(F)ccc31)CC2` [Example 190, (4-{5-Fluoro-2-[3-(5-fluoro-indazol-1-yl)-propionyl]-1,2,3,4-tetrahydro-isoquinolin-8-yl}-3-methoxy-phenyl)-acetic acid] gave an IC50 of 7.25 nM. Compared with the last compound, the IC50 is about 2.6-fold lower.

For the compound `CCOc1ccc(CC(=O)O)cc1-c1ccc(F)c2c1CN(C(=O)CCc1cccc(F)c1)CC2` [Example 311, (4-Ethoxy-3-{5-fluoro-2-[3-(3-fluoro-phenyl)-propionyl]-1,2,3,4-tetrahydro-isoquinolin-8-yl}-phenyl)-acetic acid], the IC50 worked out at 3.9 nM.

Compound `CCOc1ccc(CC(=O)O)cc1-c1ccc(F)c2c1CN(C(=O)CC(C)c1cnccn1)CC2` (racemic) [Example 281] had an IC50 of 27.5 nM. Compared with the last compound, the IC50 is about 7.1-fold higher.

In the case of `COc1ccc(CC(=O)O)cc1-c1ccc(Cl)c2c1CN(C(=O)CCc1c(C)[nH]c3ccccc13)CC2` [Example 79, (3-{5-Chloro-2-[3-(2-methyl-1H-indol-3-yl)-propionyl]-1,2,3,4-tetrahydro-isoquinolin-8-yl}-4-methoxy-phenyl)-acetic acid], the half-inhibitory concentration (IC50) came out at 37.8 nM.

For the compound `COc1ccc(OC(C)C(=O)O)cc1-c1ccc(F)c2c1CN(C(=O)OCc1ccccc1)CC2` (racemic) [Example 414], the half-inhibitory concentration (IC50) is 430 nM.

For `CCOc1cc(CC(=O)O)ccc1-c1ccc(F)c2c1CN(C(=O)OCc1cccc(C)n1)CC2` [Example 390, 8-(4-Carboxymethyl-2-ethoxy-phenyl)-5-fluoro-3,4-dihydro-1H-isoquinoline-2-carboxylic acid 6-methyl-pyridin-2-ylmethyl ester], the IC50 was 0.8 nM.

With `O=C(O)COc1ccc(Cl)cc1-c1ccc(F)c2c1CN(C(=O)OCc1ccccc1)CC2` [Example 145, 8-(2-Carboxymethoxy-5-chloro-phenyl)-5-fluoro-3,4-dihydro-1H-isoquinoline-2-carboxylic acid benzyl ester], the IC50 came out at 430 nM.

Compound `CC(C)Oc1ccc(CC(=O)O)cc1-c1ccc(F)c2c1CN(C(=O)CC(C)c1ccccn1)CC2` (racemic) [Example 293] gave an IC50 of 1.6 nM.

`CC(C)Oc1cc(CC(=O)O)ccc1-c1ccc(F)c2c1CN(C(=O)CC(C)(C)c1ccccc1)CC2` [Example 354, {4-[5-Fluoro-2-(3-methyl-3-phenyl-butyryl)-1,2,3,4-tetrahydro-isoquinolin-8-yl]-3-isopropoxy-phenyl}-acetic acid]: the IC50 was 4.2 nM.

For the compound `O=C(O)Cc1ccc(-c2ccc(F)c3c2CN(C(=O)OCc2ccccc2)CC3)c(F)c1` [Example 164, 8-(4-Carboxymethyl-2-fluoro-phenyl)-5-fluoro-3,4-dihydro-1H-isoquinoline-2-carboxylic acid benzyl ester], the IC50 worked out at 47.3 nM.

Regarding `COc1ccc(CC(=O)O)cc1-c1ccc(F)c2c1CN(C(=O)C1CCOc3ccccc31)CC2` (racemic) [Example 272], the concentration for half-maximal inhibition (IC50) was 262 nM. This IC50 lies about 5.5-fold higher than the previous one.

In the case of `CCOc1cc(CC(=O)O)ccc1-c1ccc(F)c2c1CN(C(=O)CCc1cccc(F)c1)CC2` [Example 316, (3-Ethoxy-4-{5-fluoro-2-[3-(3-fluoro-phenyl)-propionyl]-1,2,3,4-tetrahydro-isoquinolin-8-yl}-phenyl)-acetic acid], the IC50 is 2.1 nM.

`CC(C)(CC(=O)N1CCc2c(F)ccc(-c3cc(CC(=O)O)ccc3OCC(F)(F)F)c2C1)c1ccccc1` [Example 300, [3-[5-Fluoro-2-(3-methyl-3-phenyl-butyryl)-1,2,3,4-tetrahydro-isoquinolin-8-yl]-4-(2,2,2-trifluoro-ethoxy)-phenyl]-acetic acid] returned an IC50 of 14.8 nM.

Compound `COc1ccc(-c2ccc(F)c3c2CN(C(=O)OCc2ccccc2)CC3)cc1CC(=O)O` [Example 13, 8-(3-Carboxymethyl-4-methoxy-phenyl)-5-fluoro-3,4-dihydro-1H-isoquinoline-2-carboxylic acid benzyl ester] came in with an IC50 of 72.3 nM.

For `COc1ccc(CC(=O)O)cc1-c1ccc(F)c2c1CN(C(=O)CC(C)c1ccncc1)CC2` (racemic) [Example 267, (±)-{3-[5-Fluoro-2-(3-pyridin-4-yl-butyryl)-1,2,3,4-tetrahydro-isoquinolin-8-yl]-4-methoxy-phenyl}-acetic acid formiate], the 50% inhibitory concentration (IC50) was found to be 86.1 nM.

In turn, `COc1ccc(CC(=O)O)cc1-c1ccc(F)c2c1CN(C(=O)CC1(C)CCCc3ccccc31)CC2` (racemic) [Example 239] had an IC50 of 28.4 nM. Compared with the last compound, the IC50 is about 3-fold lower.

On to `CCCNC(=O)N1CCc2c(F)ccc(-c3ccc(CC(=O)O)cc3OCC)c2C1` [Example 447, [3-Ethoxy-4-(5-fluoro-2-propylcarbamoyl-1,2,3,4-tetrahydro-isoquinolin-8-yl)-phenyl]-acetic acid], for which the IC50 came out at 78.2 nM. Compared with the last compound, the IC50 is about 2.8-fold higher.

Compound `CC(C)Oc1cc(CC(=O)O)ccc1-c1ccc(F)c2c1CN(C(=O)[C@@H]1C[C@H]1c1ccccc1)CC2` [Example 357, {4-[5-Fluoro-2-((1R,2R)-2-phenyl-cyclopropanecarbonyl)-1,2,3,4-tetrahydro-isoquinolin-8-yl]-3-isopropoxy-phenyl}-acetic acid] gave an IC50 of 1.6 nM. Compared with the last compound, the IC50 is about 49-fold lower.

As to `COc1ccc(CC(=O)O)cc1-c1ccc(F)c2c1CN(C(=O)/C=C/c1sc(C)nc1C)CC2` [Example 87, (3-{2-[(E)-3-(2,4-Dimethyl-thiazol-5-yl)-acryloyl]-5-fluoro-1,2,3,4-tetrahydro-isoquinolin-8-yl}-4-methoxy-phenyl)-acetic acid], the IC50 turned out to be 93.8 nM.

`COc1cc(CC(=O)O)ccc1-c1ccc(F)c2c1CN(C(=O)[C@@H]1C[C@H]1c1ccccc1)CC2` [Example 184, {4-[5-Fluoro-2-((1R,2R)-2-phenyl-cyclopropanecarbonyl)-1,2,3,4-tetrahydro-isoquinolin-8-yl]-3-methoxy-phenyl}-acetic acid] yielded an IC50 of 0.9 nM.
